Our source for the MIC values is patent US11014934B2, “Antiseptic drug” (AO “TATKHIMFARMPREPARATY”, priority 2017, dated 2021).

What all share (assay): MIC, serial dilutions in Müller-Hinton broth
Common to all, as to format: cell-based

One test has as its system Acinetobacter spp. 4. The procedure: (§1) A comparative assessment of the spectrum of antibacterial action was carried out on archival and clinical strains of gram-positive and gram-negative microorganisms in accordance with the [Opredeleniye chuvstvitel'nosti mikroorganizmov k antibakterial'nym preparatam (Metodicheskiye ukazaniya MUK 4.2.1890-04). Utverzhdeny i vvedeny v deystviye Glavnym gosudarstvennym sanitarnym vrachom Rossiyskoy Federatsii G. G. Onishchenko 04.03.2004 g. Determination of the sensitivity of microorganisms to antibacterial drugs (Guidelines MUK 4.2.1890-04). Approved and put into effect by the Chief State Sanitary Doctor of the Russian Federation G. G. Onishchenko on 4 Mar. 2004].
(§2) The value of the minimum inhibitory concentration (MIC) was determined by the method of serial dilutions on Müller-Hinton broth using 96-well sterile plates. Two-fold dilutions of the test substances in a nutrient medium were prepared. The final concentrations were 1-128 ug/ml. The growth of cultures was assessed visually, comparing the growth of microorganisms in the presence of test compounds with the growth of culture without them. […] The first lowest concentration of the studied substance (from a series of consecutive dilutions), where bacterial growth is not visually determined, is considered to be the minimum inhibitory concentration (MIC). MIC was determined by the method of serial dilutions in broth with increment=2, so the differences of neighboring dilutions are not considered to be significant. In each experience there is a positive (broth with growing culture) and a negative (broth without growing culture) control.
(§3) To determine the MIC, 10 μl of culture medium was taken from those wells in which growth was not observed, and inoculation was performed on a dense Müller-Hinton broth. For the preparation of the inoculum, a pure, daily culture of gram-positive and gram-negative microorganisms grown on a dense nutrient medium was used. Nutrient medium is Müller-Hinton broth, which was prepared from dry media (Müller-Hinton broth, Acumedia, Baltimore), cultivation was carried out on agarized Müller-Hinton broth, including an additional 2% agar. The media were autoclaved at 121° C. for 15 minutes. In a sterile isotonic solution of sodium chloride, a suspension of microorganisms was prepared, adjusting the inoculum density to 0.5 according to the McFarland standard (1.5·10^8 CFU/ml). Then, the resulting inoculum was diluted to a concentration of 10^7 CFU/ml with Müller-Hinton broth. The inoculum was used within 15 minutes after preparation; the purity of the bacterial strains was monitored before each experiment.
(§4) 100 μl of Müller-Hinton broth was added to the wells of each plate; The tested substance was introduced into the first well at a concentration of 128 μg/ml in a volume of 100 μl and its concentration was adjusted to 0.5 μg/ml by consecutive two-fold dilution. Then, the prepared inoculum (100 μI) was added to each well, thereby diluting twice the concentration of the studied compounds. […] In addition, the purity of nutrient media and solvents was monitored. The plates were incubated in a thermostat at 37° C. for 24 hours. The growth of cultures was assessed visually, comparing the growth of microorganisms in the presence of test compounds with the growth of culture without them.
(§5) For the MIC was taken the minimum concentration of the studied compounds, providing complete suppression of the visible growth of the studied strains of microorganisms. The maximum value obtained in three independent experiments was taken as the MIC of the compound.

Another test has as its system E. coli CDCF-50. Here is the method: as §1, §2, §3, §4, §5
The subject of another test is E. faecalis 3047. Here is the method:
as §1, §2, §3, §4, §5

The test system of a further test is E. faecium 24. The procedure:
as §1, §2, §3, §4, §5

The test system of another test is E. faecium 29. The procedure:
as §1, §2, §3, §4, §5

Another test deals with E. faecium 3030. The procedure:
as §1, §2, §3, §4, §5

The subject of another test is E. faecium 4403. The procedure:
as §1, §2, §3, §4, §5

Another test deals with E.coli ATCC 25922. The procedure:
as §1, §2, §3, §4, §5

The subject of another test is Kl. pneumoniae 1766. The procedure: as §1, §2, §3, §4, §5
Another test has as its system Kl. pneumoniae 1781. Here is the method: as §1, §2, §3, §4, §5
Another test concerns Kl. pneumoniae 1953 PR. Here is the method:
as §1, §2, §3, §4, §5

The next test has as its system Moraxella sp. 713. Here is the method: as §1, §2, §3, §4, §5
The next test concerns Moraxella sp. 764. Here is the method:
as §1, §2, §3, §4, §5

Another test deals with Ps. aeruginosa 1202. Here is the method: as §1, §2, §3, §4, §5
For the next test, the system named is Ps. aeruginosa 1913 PR. The procedure: as §1, §2, §3, §4, §5
In a further test the test system is Pseudomonas spp. 5. Here is the method: as §1, §2, §3, §4, §5
The next test has as its system S. aureus 1134 MRSA. The procedure:
as §1, §2, §3, §4, §5

The next test has as its system S. aureus 1168 MRSA. Here is the method: as §1, §2, §3, §4, §5
The test system of another test is S. aureus 20. Here is the method:
as §1, §2, §3, §4, §5

A further test concerns S. epidermidis 15990. The procedure:
as §1, §2, §3, §4, §5

A further test deals with S. marcescens 1966 PR. Here is the method: as §1, §2, §3, §4, §5
In the next test the test system is S. marcescens. The procedure: as §1, §2, §3, §4, §5

Where two headings read alike, the source gives them in different places.

As to `CCCCCCCCCCCC[N+](C)(C)Cc1cnc(C[N+](C)(C)CCCCCCCCCCCC)c2c1COC(CC)O2` (stereo not drawn) [Compound I, 5,8-(Bis(methylene (N, N-dimethyl-N-dodecylammonium))-2-ethyl-4H-[1,3]dioxino [4,5-c]pyridiniumdichloride], the MIC with Acinetobacter spp. 4 (Acinetobacter spp. 4, inoculum 10^7 CFU/ml, read-out: MIC) came out at 8 µg/mL; in the test on E. coli CDCF-50 (Escherichia coli, CDCF50, E. coli CDCF-50, inoculum 10^7 CFU/ml, read-out: MIC), 8 µg/mL; in the test with E. faecalis 3047 (Enterococcus faecalis, E. faecalis 3047, inoculum 10^7 CFU/ml, read-out: MIC) it was 4 µg/mL; with E. faecium 24 (Enterococcus faecium, E. faecium 24, inoculum 10^7 CFU/ml, read-out: MIC), 0.03 µg/mL; in the test on E. faecium 29 (Enterococcus faecium, E. faecium 29, inoculum 10^7 CFU/ml, read-out: MIC), 0.03 µg/mL; in the test with E. faecium 3030 (Enterococcus faecium, E. faecium 3030, inoculum 10^7 CFU/ml, read-out: MIC), 1 µg/mL. Further, the MIC in the test with E. faecium 4403 (Enterococcus faecium, E. faecium 4403, inoculum 10^7 CFU/ml, read-out: MIC) came to 0.03 µg/mL; with E.coli ATCC 25922 (Escherichia coli, ATCC25922, E.coli ATCC 25922, inoculum 10^7 CFU/ml, read-out: MIC), 2 µg/mL; in the test with Kl. pneumoniae 1766 (Klebsiella pneumoniae, Kl. pneumoniae 1766, inoculum 10^7 CFU/ml, read-out: MIC), 16 µg/mL; with Kl. pneumoniae 1781 (Klebsiella pneumoniae, Kl. pneumoniae 1781, inoculum 10^7 CFU/ml, read-out: MIC) it was 2 µg/mL; in the test on Kl. pneumoniae 1953 PR (Klebsiella pneumoniae, Kl. pneumoniae 1953 PR, inoculum 10^7 CFU/ml, read-out: MIC), 2 µg/mL; in the test on Moraxella sp. 713 (Moraxella sp. 713, inoculum 10^7 CFU/ml, read-out: MIC), 8 µg/mL. Further, the MIC in the test on Moraxella sp. 764 (Moraxella sp. 764, inoculum 10^7 CFU/ml, read-out: MIC) is 8 µg/mL; in the test on Ps. aeruginosa 1202 (Pseudomonas aeruginosa, Ps. aeruginosa 1202, inoculum 10^7 CFU/ml, read-out: MIC) it was 32 µg/mL; with Ps. aeruginosa 1913 PR (Pseudomonas aeruginosa, Ps. aeruginosa 1913 PR, inoculum 10^7 CFU/ml, read-out: MIC), 64 µg/mL; in the test with Pseudomonas spp. 5 (Pseudomonas spp. 5, inoculum 10^7 CFU/ml, read-out: MIC), 8 µg/mL; in the test on S. aureus 1134 MRSA (Staphylococcus aureus, S. aureus 1134 MRSA, inoculum 10^7 CFU/ml, read-out: MIC) it was 2 µg/mL; with S. aureus 1168 MRSA (Staphylococcus aureus, S. aureus 1168 MRSA, inoculum 10^7 CFU/ml, read-out: MIC), 1 µg/mL. For the same compound, the MIC in the test on S. aureus 20 (Staphylococcus aureus, S. aureus 20, inoculum 10^7 CFU/ml, read-out: MIC) stood at 4 µg/mL; in the test with S. epidermidis 15990 (Staphylococcus epidermidis, S. epidermidis 15990, inoculum 10^7 CFU/ml, read-out: MIC), 4 µg/mL; in the test with S. marcescens 1966 PR (Serratia marcescens, S. marcescens 1966 PR, inoculum 10^7 CFU/ml, read-out: MIC), 32 µg/mL; in the test on S. marcescens (Serratia marcescens, S. marcescens, inoculum 10^7 CFU/ml, read-out: MIC), 4 µg/mL.
As to `CCCCCCCCCCCCCC(=O)NCCC[N+](C)(C)Cc1ccccc1.O.[Cl-]` [Miramistin, benzyldimethyl [3-(myristoylamino)propyl]-ammonium chloride monohydrate], the MIC against Acinetobacter spp. 4 (Acinetobacter, SPP.4) was > 64 µg/mL; in the test with E. coli CDCF-50 (Escherichia coli, CDCF50), 64 µg/mL; against E. faecalis 3047 (Enterococcus faecalis, 3047) it was 2 µg/mL; against E. faecium 24 (Enterococcus faecium, 24), 16 µg/mL; with E. faecium 29 (Enterococcus faecium, 29), 8 µg/mL; in the test on E. faecium 3030 (Enterococcus faecium, 3030), 0.5 µg/mL. For the same compound, the MIC against E. faecium 4403 (Enterococcus faecium, 4403) came to 64 µg/mL; in the test with E.coli ATCC 25922 (Escherichia coli, ATCC25922) it was 4 µg/mL; against Kl. pneumoniae 1766 (Klebsiella pneumoniae, 1766), 64 µg/mL; in the test on Kl. pneumoniae 1781 (Klebsiella pneumoniae, 1781), 64 µg/mL; in the test with Kl. pneumoniae 1953 PR (Klebsiella pneumoniae, 1953PR), 64 µg/mL; against Moraxella sp. 713 (Moraxella, SP.713), 32 µg/mL. Also, the MIC against Moraxella sp. 764 (Moraxella, SP.764) was 64 µg/mL; in the test on Ps. aeruginosa 1202 (Pseudomonas aeruginosa, 1202), > 64 µg/mL; with Ps. aeruginosa 1913 PR (Pseudomonas aeruginosa, 1913PR), > 64 µg/mL; with Pseudomonas spp. 5 (Pseudomonas, SPP.5), > 64 µg/mL; against S. aureus 1134 MRSA (Staphylococcus aureus, MRSA) it was 8 µg/mL; against S. aureus 1168 MRSA (Staphylococcus aureus, MRSA), 8 µg/mL. Moreover, the MIC in the test with S. aureus 20 (Staphylococcus aureus, 20) worked out at 32 µg/mL; against S. epidermidis 15990 (Staphylococcus epidermidis, 15990) it was 8 µg/mL; against S. marcescens 1966 PR (Serratia marcescens, 1966PR), 64 µg/mL; with S. marcescens (Serratia marcescens), 32 µg/mL.
Regarding “alkyldimethyl(phenylmethyl) ammonium chloride [Benzalconium chloride]”, the MIC was 4 µg/mL in the test on Acinetobacter spp. 4 (Acinetobacter spp. 4, inoculum 10^7 CFU/ml); 4 µg/mL in the test on E. coli CDCF-50 (E. coli CDCF-50, inoculum 10^7 CFU/ml); 2 µg/mL in the test with E. faecalis 3047 (E. faecalis 3047, inoculum 10^7 CFU/ml); <0.5 µg/mL against E. faecium 24 (E. faecium 24, inoculum 10^7 CFU/ml); <0.5 µg/mL against E. faecium 29 (E. faecium 29, inoculum 10^7 CFU/ml); 0.5 µg/mL against E. faecium 3030 (E. faecium 3030, inoculum 10^7 CFU/ml). The MIC in the test with E. faecium 4403 (E. faecium 4403, inoculum 10^7 CFU/ml) was determined as 2 µg/mL; with E.coli ATCC 25922 (E.coli ATCC 25922, inoculum 10^7 CFU/ml), 1 µg/mL; with Kl. pneumoniae 1766 (Kl. pneumoniae 1766, inoculum 10^7 CFU/ml) it was 16 µg/mL; in the test on Kl. pneumoniae 1781 (Kl. pneumoniae 1781, inoculum 10^7 CFU/ml), 16 µg/mL; in the test on Kl. pneumoniae 1953 PR (Kl. pneumoniae 1953 PR, inoculum 10^7 CFU/ml), 16 µg/mL; in the test with Moraxella sp. 713 (Moraxella sp. 713, inoculum 10^7 CFU/ml) it was 4 µg/mL. The MIC is 4 µg/mL against Moraxella sp. 764 (Moraxella sp. 764, inoculum 10^7 CFU/ml); >64 µg/mL against Ps. aeruginosa 1202 (Ps. aeruginosa 1202, inoculum 10^7 CFU/ml); >64 µg/mL in the test with Ps. aeruginosa 1913 PR (Ps. aeruginosa 1913 PR, inoculum 10^7 CFU/ml); 32 µg/mL against Pseudomonas spp. 5 (Pseudomonas spp. 5, inoculum 10^7 CFU/ml); 2 µg/mL in the test on S. aureus 1134 MRSA (S. aureus 1134 MRSA, inoculum 10^7 CFU/ml); 2 µg/mL with S. aureus 1168 MRSA (S. aureus 1168 MRSA, inoculum 10^7 CFU/ml). For the same compound, the MIC in the test with S. aureus 20 (S. aureus 20, inoculum 10^7 CFU/ml) is <0.5 µg/mL; in the test on S. epidermidis 15990 (S. epidermidis 15990, inoculum 10^7 CFU/ml) it was 1 µg/mL; with S. marcescens 1966 PR (S. marcescens 1966 PR, inoculum 10^7 CFU/ml), 64 µg/mL; against S. marcescens (S. marcescens, inoculum 10^7 CFU/ml), 2 µg/mL.
